Read-outs that look alike come from different tables or passages of the source.
What was measured:
[1] = test system: MCF7 (breast cancer cell line); assay: Growth inhibition by MTT cytotoxicity assay, in vitro anticancer activity; type: cell-based
Protocol: Compounds were dissolved in DMSO (Sigma) to prepare 50 mM concentrations stock solutions. All the further dilutions were also made in DMSO. During the treatment, the final concentration of DMSO was maintained <[…].
Breast cancer cell line MCF7, maintained at NCCS, a national resource for providing cell lines, was grown in DMEM (GIBCO), MBA-MB-231 in RPMI (GIBCO) with 10% FBS, 100 U/mL penicillin and 100 μg/mL streptomycin and MCF10A in DMEM/F12 (Gibco) containing, horse Serum (10% final), EGF (20 ng/ml), Hydrocortisone ([…]), Cholera Toxin (100 ng/ml), Insulin (10 μg/ml) and Penicillin/Streptomycin mix (1 ml/100 ml) at 37° C. in a humid, 5% CO2 regulated incubator.
The cytotoxic effect of the compounds was determined using MTT (3-(4, 5 dimethylthiazol-2-yl)-2-5 diphenyltetrazolium bromide) assay. Cells were seeded (4×10^3 per well) in 96 well plates. After 24 hours of seeding, cells were exposed with varying concentrations ([…]) of respective compounds for 48 hours in triplicates. Then, MTT solution (20 μL of 5 mg/mL stock for each well of 96 well plate) was added and further incubated for 3.5 hours in humid 5% CO2 incubator. Media containing MTT solution was then replaced by MTT solvent (iso-propanol, HCl and Triton X-100), incubated for 15 min at room temperature with gentle shaking for complete dissolution of Formazan. Absorbance was measured at 570 nm using a Thermo Scientific Multiskan GO Elisa plate reader and IC 50 was calculated by routine methods. All experiments were carried out at least in triplicate, and the percentage of viable cells was calculated as the mean with respect to the controls.

[2] = Homo sapiens, MCF7 breast cancer cell line, MTT, 48 hours exposure, Table 1, read-out: IC50
[3] = MCF7 breast cancer cell line, MTT, 48 hours exposure, table of Example 4, read-out: IC50

Row | SMILES | IC50 [1, 2] [µM] | IC50 [1, 3] [µM] | melting point [°C] | IC50 ([1]; Homo sapiens, MCF7, MCF-7 breast cancer cell line, read-out: IC50 value, anticancer activity against MCF-7) [µM] | IC50 value less when compared with artimisinic acid ([1]; MCF7, reduction of IC50 relative to artimisinic acid)
1 | C=C(C(=O)OCc1cn([C@@H]2O[C@H](COC(C)=O)[C@H](OC(C)=O)[C@H](OC(C)=O)[C@H]2OC(C)=O)nn1)[C@@H]1CC[C@@H](C)[C@@H]2CCC(C)=C[C@@H]21 [KTK-AA-2, (2R,3S,4S,5R,6R)-2-(acetoxymethyl)-6-(4-(((2-((1R,4R,4aS,8aR)-4,7-dimethyl-1,2,3,4,4a,5,6,8a-octahydronaphthalen-1-yl)acryloyl)oxy)methyl)-1H-1,2,3-triazol-1-yl)tetrahydro-2H-pyran-3,4,5-triyl triacetate] | > 100 | > 100 |  |  | 
2 | C=C(C(=O)OCc1cn([C@@H]2O[C@H](COC(C)=O)[C@@H](OC(C)=O)[C@H](OC(C)=O)[C@H]2OC(C)=O)nn1)[C@@H]1CC[C@@H](C)[C@@H]2CCC(C)=C[C@@H]21 [KTK-AA-4, (2R,3R,4S,5R,6R)-2-(acetoxymethyl)-6-(4-(((2-((1R,4R,4aS,8aR)-4,7-dimethyl-1,2,3,4,4a,5,6,8a-octahydronaphthalen-1-yl)acryloyl)oxy)methyl)-1H-1,2,3-triazol-1-yl)tetrahydro-2H-pyran-3,4,5-triyl triacetate] | > 100 | > 100 |  |  | 
3 | C=C(C(=O)OCc1cn([C@@H]2O[C@H](COC(=O)c3ccccc3)[C@H](OC(=O)c3ccccc3)[C@H](OC(=O)c3ccccc3)[C@H]2OC(=O)c2ccccc2)nn1)[C@@H]1CC[C@@H](C)[C@@H]2CCC(C)=C[C@@H]21 [KTK-AA-6, (2R,3S,4S,5R,6R)-2-((benzoyloxy)methyl)-6-(4-(((2-((1R,4R,4aS,8aR)-4,7-dimethyl-1,2,3,4,4a,5,6,8a-octahydronaphthalen-1-yl)acryloyl)oxy)methyl)-1H-1,2,3-triazol-1-yl)tetrahydro-2H-pyran-3,4,5-triyl tribenzoate] | > 100 | > 100 |  |  | 
4 | C=C(C(=O)OCc1cn([C@@H]2O[C@@H](C)[C@H](OC(C)=O)[C@@H](OC(C)=O)[C@H]2OC(C)=O)nn1)[C@@H]1CC[C@@H](C)[C@@H]2CCC(C)=C[C@@H]21 [KTK-AA-7, (2R,3R,4R,5S,6S)-2-(4-(((2-((1R,4R,4aS,8aR)-4,7-Dimethyl-1,2,3,4,4a,5,6,8a-octahydronaphthalen-1-yl)acryloyl)oxy)methyl)-1H-1,2,3-triazol-1-yl)-6-methyltetrahydro-2H-pyran-3,4,5-triyl triacetate] | 42 ± 2 |  | 89 to 92 | 42 | more than 50%
5 | C=C(C(=O)O)[C@@H]1CC[C@@H](C)[C@@H]2CCC(C)=C[C@@H]21 [KTK-AA- Artimisinic acid, Artemisinic acid] | > 100 | > 100 |  |  | 
6 | C=C(C(=O)NCc1cn([C@@H]2O[C@H](COC(C)=O)[C@@H](OC(C)=O)[C@H](OC(C)=O)[C@H]2OC(C)=O)nn1)[C@@H]1CC[C@@H](C)[C@@H]2CCC(C)=C[C@@H]21 [KTK-PA-2, (2R,3R,4S,5R,6R)-2-(acetoxymethyl)-6-(4-((2-((1R,4R,4aS,8aR)-4,7-dimethyl-1,2,3,4,4a,5,6,8a-octahydronaphthalen-1-yl)acrylamido)methyl)-1H-1,2,3-triazol-1-yl)tetrahydro-2H-pyran-3,4,5-triyl triacetate] | > 100 | > 100 |  |  | 
7 | C=C(C(=O)NCc1cn([C@@H]2O[C@H](COC(C)=O)[C@H](OC(C)=O)[C@H](OC(C)=O)[C@H]2OC(C)=O)nn1)[C@@H]1CC[C@@H](C)[C@@H]2CCC(C)=C[C@@H]21 [KTK-PA-3, (2R,3S,4S,5R,6R)-2-(acetoxymethyl)-6-(4-((2-((1R,4R,4aS,8aR)-4,7-dimethyl-1,2,3,4,4a,5,6,8a-octahydronaphthalen-1-yl)acrylamido)methyl)-1H-1,2,3-triazol-1-yl)tetrahydro-2H-pyran-3,4,5-triyl triacetate] | > 100 | > 100 |  |  | 
8 | C=C(C(=O)NCc1cn([C@@H]2O[C@H](COC(=O)c3ccccc3)[C@@H](OC(=O)c3ccccc3)[C@H](OC(=O)c3ccccc3)[C@H]2OC(=O)c2ccccc2)nn1)[C@@H]1CC[C@@H](C)[C@@H]2CCC(C)=C[C@@H]21 [KTK-PA-4, (2R,3R,4S,5R,6R)-2-((benzoyloxy)methyl)-6-(4-((2-((1R,4R,4aS,8aR)-4,7-dimethyl-1,2,3,4,4a,5,6,8a-octahydronaphthalen-1-yl)acrylamido)methyl)-1H-1,2,3-triazol-1-yl)tetrahydro-2H-pyran-3,4,5-triyl tribenzoate] | > 100 | > 100 |  |  | 

From patent US11059848B2, “Artemisinic acid glycoconjugate compounds, process for preparation and use thereof” (Council of Scientific and Industrial Research, priority 2018, dated 2021)
